{"source": "patent US20130296363A1", "about": "“QUINOLINE AND ISOQUINOLINE DERIVATIVES FOR USE AS JAK MODULATORS” (AMBIT BIOSCIENCES CORPORATION, priority 2010, published 2013)", "key": {"[1]": {"molecular_target": "T1, JAK2 (Homo sapiens, UniProt O60674)", "T1 construct": "made in house", "T1 sequence (O60674 whole entry, the tested form may be a part)": "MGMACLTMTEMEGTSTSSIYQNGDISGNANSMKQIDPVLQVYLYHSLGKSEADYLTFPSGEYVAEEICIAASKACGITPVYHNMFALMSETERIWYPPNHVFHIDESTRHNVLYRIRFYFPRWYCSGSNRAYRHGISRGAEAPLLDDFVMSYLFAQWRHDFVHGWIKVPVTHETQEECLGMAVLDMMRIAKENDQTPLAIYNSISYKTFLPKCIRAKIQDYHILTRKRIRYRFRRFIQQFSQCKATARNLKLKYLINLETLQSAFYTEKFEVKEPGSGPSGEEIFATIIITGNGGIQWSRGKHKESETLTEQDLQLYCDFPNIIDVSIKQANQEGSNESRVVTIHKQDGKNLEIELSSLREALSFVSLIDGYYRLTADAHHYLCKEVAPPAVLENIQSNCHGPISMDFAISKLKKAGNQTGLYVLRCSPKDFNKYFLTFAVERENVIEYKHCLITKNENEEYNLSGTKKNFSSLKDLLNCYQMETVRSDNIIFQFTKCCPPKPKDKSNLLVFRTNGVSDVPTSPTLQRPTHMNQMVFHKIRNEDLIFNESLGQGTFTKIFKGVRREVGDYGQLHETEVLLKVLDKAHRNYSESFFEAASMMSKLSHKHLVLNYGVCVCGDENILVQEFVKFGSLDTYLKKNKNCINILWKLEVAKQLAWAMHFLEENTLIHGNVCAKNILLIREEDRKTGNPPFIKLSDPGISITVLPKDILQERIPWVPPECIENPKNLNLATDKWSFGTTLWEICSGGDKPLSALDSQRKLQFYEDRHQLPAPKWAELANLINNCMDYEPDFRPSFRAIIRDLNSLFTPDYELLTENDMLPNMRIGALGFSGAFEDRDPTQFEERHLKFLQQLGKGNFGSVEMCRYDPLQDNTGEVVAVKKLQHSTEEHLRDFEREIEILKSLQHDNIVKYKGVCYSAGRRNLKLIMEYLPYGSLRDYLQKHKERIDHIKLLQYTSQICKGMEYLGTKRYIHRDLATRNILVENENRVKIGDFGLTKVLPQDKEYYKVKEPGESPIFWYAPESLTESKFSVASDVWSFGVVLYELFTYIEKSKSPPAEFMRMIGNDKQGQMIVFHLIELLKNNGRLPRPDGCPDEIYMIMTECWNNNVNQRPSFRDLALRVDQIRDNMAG", "experiment": "Competition binding assay to determine Kd against JAK kinases: JAK2", "method": "(§1) Competition binding assays used herein were developed, validated and performed as described in Fabian et al., Nature Biotechnology 2005, 23, 329-336. Kinases were produced as fusions to T7 phage (See, Fabian et al. or WO04/015142) or alternatively, the kinases were expressed in HEK-293 cells and subsequently tagged with DNA for PCR detection (See, WO08/005,310). For the binding assays, streptavidin-coated magnetic beads were treated with biotinylated affinity ligands for 30 min at rt to generate affinity resins. The liganded beads were blocked with excess biotin and washed with blocking buffer (SeaBlock (Pierce), 1% BSA, 0.05% Tween 20, 1 mM DTT) to remove unbound ligand and to reduce non-specific binding. Binding reactions were assembled by combining kinase, liganded affinity beads, and test compounds in 1× binding buffer (20% SeaBlock, 0.17×PBS, 0.05% Tween 20, 6 mM DTT). Test compounds were prepared as 100× stocks in DMSO and rapidly diluted into the aqueous environment. DMSO was added to control assays lacking a test compound. Primary screen interactions were performed in polypropylene 384-well plates in a final volume of 34 μL, while Kd determinations were performed in polystyrene 96-well plates in a final volume of 135 μL. The assay plates were incubated at room temperature with shaking for 1 hour, long enough for binding reactions to reach equilibrium, and the affinity beads were washed extensively with wash buffer (1×PBS, 0.05% Tween 20) to remove unbound protein. The beads were then resuspended in elution buffer (1×PBS, 0.05% Tween 20, 2 μM non-biotinylated affinity ligand) and incubated at room temperature with shaking for 30 min. The kinase concentration in the eluates was measured by quantitative PCR. Each kinase was tested individually against each compound. Kds were determined using eleven serial threefold dilutions. A selectivity score, which is a quantitative measure of selectivity of a compound against a panel of enzymes, may be calculated for a compound by dividing the number of enzymes for which a compound meets a set criteria, (for example, a binding constant of 100 nM or less), by the total number of enzymes tested."}, "[2]": {"molecular_target": "T2, JAK3 (Homo sapiens, UniProt P52333)", "T2 construct": "made in house", "T2 sequence (P52333 1-1124)": "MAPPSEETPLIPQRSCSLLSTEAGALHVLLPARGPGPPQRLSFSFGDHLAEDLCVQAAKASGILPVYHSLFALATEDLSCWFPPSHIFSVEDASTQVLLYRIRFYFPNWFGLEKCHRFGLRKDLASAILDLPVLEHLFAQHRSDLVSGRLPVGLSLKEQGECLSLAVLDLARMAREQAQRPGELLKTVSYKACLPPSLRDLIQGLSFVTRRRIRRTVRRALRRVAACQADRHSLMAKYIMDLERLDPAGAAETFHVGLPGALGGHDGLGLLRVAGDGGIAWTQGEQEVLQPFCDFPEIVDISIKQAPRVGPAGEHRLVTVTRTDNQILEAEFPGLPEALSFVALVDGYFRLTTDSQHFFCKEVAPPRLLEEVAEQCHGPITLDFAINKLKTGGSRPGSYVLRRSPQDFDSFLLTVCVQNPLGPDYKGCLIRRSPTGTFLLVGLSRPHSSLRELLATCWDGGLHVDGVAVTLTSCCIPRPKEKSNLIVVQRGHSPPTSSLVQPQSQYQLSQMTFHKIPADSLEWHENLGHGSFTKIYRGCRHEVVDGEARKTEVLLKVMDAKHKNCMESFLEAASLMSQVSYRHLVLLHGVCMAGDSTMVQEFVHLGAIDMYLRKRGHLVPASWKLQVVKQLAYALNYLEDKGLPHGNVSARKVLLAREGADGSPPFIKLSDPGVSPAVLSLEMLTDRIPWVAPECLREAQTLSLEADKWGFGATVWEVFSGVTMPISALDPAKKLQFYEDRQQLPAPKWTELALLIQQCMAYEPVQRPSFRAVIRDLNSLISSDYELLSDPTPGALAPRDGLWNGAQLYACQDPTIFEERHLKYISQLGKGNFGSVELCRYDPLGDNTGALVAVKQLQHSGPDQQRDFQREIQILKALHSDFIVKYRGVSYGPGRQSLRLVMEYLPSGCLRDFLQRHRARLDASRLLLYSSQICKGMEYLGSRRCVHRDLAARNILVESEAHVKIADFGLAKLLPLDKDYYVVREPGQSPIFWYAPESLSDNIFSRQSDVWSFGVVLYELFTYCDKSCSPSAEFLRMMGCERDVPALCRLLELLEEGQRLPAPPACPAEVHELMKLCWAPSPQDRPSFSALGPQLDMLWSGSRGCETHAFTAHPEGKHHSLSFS", "experiment": "Competition binding assay to determine Kd against JAK kinases: JAK3", "method": "as §1"}, "[3]": {"molecular_target": "T3, TYK2 (Homo sapiens, UniProt P29597)", "T3 construct": "made in house", "T3 sequence (P29597 whole entry)": "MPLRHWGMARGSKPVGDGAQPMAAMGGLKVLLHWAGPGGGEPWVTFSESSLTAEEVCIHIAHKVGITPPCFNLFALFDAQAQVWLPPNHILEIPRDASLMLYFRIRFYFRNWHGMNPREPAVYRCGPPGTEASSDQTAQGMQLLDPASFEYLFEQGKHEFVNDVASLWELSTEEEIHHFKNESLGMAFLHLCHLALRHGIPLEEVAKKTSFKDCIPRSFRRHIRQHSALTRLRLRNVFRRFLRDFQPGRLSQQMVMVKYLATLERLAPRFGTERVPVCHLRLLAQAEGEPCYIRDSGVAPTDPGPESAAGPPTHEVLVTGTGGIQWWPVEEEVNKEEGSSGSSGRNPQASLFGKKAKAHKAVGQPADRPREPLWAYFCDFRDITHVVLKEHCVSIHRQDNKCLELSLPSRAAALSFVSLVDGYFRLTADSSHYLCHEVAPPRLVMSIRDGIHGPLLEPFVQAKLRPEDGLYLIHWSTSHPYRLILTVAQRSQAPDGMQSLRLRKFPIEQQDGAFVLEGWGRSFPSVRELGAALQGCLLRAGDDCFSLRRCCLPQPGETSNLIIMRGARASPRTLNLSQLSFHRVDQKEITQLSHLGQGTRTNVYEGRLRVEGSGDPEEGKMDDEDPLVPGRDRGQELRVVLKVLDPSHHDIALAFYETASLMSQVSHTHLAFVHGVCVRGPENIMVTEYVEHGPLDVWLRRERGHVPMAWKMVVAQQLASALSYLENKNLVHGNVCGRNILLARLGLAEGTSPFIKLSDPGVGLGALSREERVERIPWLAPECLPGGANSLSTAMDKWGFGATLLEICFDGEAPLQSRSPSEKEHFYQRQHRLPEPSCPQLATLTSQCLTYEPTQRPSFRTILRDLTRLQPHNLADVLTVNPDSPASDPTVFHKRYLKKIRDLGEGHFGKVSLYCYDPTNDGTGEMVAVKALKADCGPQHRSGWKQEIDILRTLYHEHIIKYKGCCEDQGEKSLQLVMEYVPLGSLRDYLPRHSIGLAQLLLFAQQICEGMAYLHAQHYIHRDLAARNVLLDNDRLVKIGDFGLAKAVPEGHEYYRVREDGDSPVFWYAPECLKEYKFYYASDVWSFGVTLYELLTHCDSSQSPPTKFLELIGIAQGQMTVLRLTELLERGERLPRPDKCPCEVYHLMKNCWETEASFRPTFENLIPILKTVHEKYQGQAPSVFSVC", "experiment": "Competition binding assay to determine Kd against JAK kinases: TYK2", "method": "as §1"}, "[4]": {"tested_on": "GM-CSFR/JAK2/STAT5 pathway in CSTF-1 cells", "experiment": "CSTF-1 cell-based reporter assay (beta-lactamase reporter, GM-CSF stimulated)", "settings": "Homo sapiens, GM-CSF at 2 ng/mL, 4 hours, read-out: Cell Assay: CS TF-1 reporter assay IC50", "method": "CSTF-1 cells are derived from the human erythroleukemia cell line that is growth dependent on GM-CSF and has an intact GM-CSFR/JAK2/STAT5 pathway. The cell line contains stably integrated beta-lactamase reporter gene under the control of the […] (irf 1) response element recognized by the activated transcription factor STAT5. csTF-1 cells (Invitrogen K1219) were washed with assay media (97% OPTIMEM/0.5% dialyzed FBS/0.1 mM NEAA/1 mM Na pyr/P/S) and seeded in the same media at 5×10^5 cell/mL in T150 flask. After 16 hour incubation, cells were seeded at 2×10^5 cell/well in 50 μl volume, into Costar, clear bottom, 96-well assay plates. Serial dilutions of compounds were added to the plates with final DMSO concentration at 0.5% and GM-CSF at 2 ng/mL and the plates were then incubated at 30° C. and 5% CO2 for 4 hours. The plates were brought to room temperature before adding Substrate Mixture according to manufacturer's protocol (Invitrogen, Catalog #K1085). The assay plates containing the substrate mixture were incubated in the dark at room temperature for 2 hours. Blue and green fluorescence was measured with excitation at 409 nm and emission at 460 nm (for blue) and excitation at 409 nm and emission at 530 nm (for green) using Spectra Max Gemini EM."}, "[5]": {"tested_on": "panel of distinct kinases excluding mutant variants, typically 359 or 386 kinases", "experiment": "Kinase selectivity score S10 from competition binding panel", "settings": "compound at 10 μM; fraction of kinases with inhibition of 90% or greater", "method": "as §1"}}}
{"compound": "Cc1cc(Nc2nc(S(=O)(=O)c3ccc(F)cc3)cc3ccccc23)n[nH]1", "note": "[Example 10, 3-(4-fluorophenylsulfonyl)-N-(5-methyl-1H-pyrazol-3-yl)isoquinolin-1-amine]", "values": [{"measurement": "Kd", "setting": "[1]", "value": "≤ 5", "unit": "nM"}, {"measurement": "Kd", "setting": "[2]", "value": "≤ 10", "unit": "nM"}, {"measurement": "Kd", "setting": "[3]", "value": "≤ 10", "unit": "nM"}, {"measurement": "IC50", "setting": "[4]", "value": "≤ 100", "unit": "nM"}, {"measurement": "S-Score: S(10) at 10 μM", "setting": "[5]", "value": "D (D > 0.5)"}]}
